The source of these data is patent US10759795B2, “Aza-A-ring indenoisoquinoline topoisomerase I poisons” (Purdue Research Foundation, priority 2016, dated 2020).

The subject of one data set is Breast, MCF7. Description: NCI-60 five-dose cytotoxicity assay, MCF7. To be noted: Homo sapiens, MCF7, read-out: Cytotoxicity GI50, Breast, MCF7. As to the method: (§1) The new indenoisoquinolines were evaluated for cancer cell growth inhibitory activities. The National Cancer Institute's NCI-60 cytotoxicity assay measures the ability of test agents to inhibit the growth of approximately 60 different cancer cell lines. In the initial single-dose assay, cells are treated with a 10 μM dose of test agent. The growth of treated cells versus untreated cells is then compared. If a test agent induces a sufficiently low mean growth percent, it is promoted to five-dose testing to determine a mean graph midpoint (MGM) GI50 value. In five-dose testing, cells are treated with test agent concentrations ranging from 10^−8 to 10^−4 M. The concentration required to achieve 50% growth inhibition in a particular cell line is calculated. In situations in which this value is greater than 100 μM or less than 0.01 μM, it is recorded as 100 μM and 0.01 μM, respectively. The values for each of the tested cell lines are averaged to obtain a mean graph midpoint (MGM) GI50 value. MGM GI50 values are often, but not always, determined from two separate rounds (Table 1).

A further data set concerns Colon, HCT-116. Briefly: NCI-60 five-dose cytotoxicity assay, HCT-116. The conditions noted are these: Homo sapiens, HCT-116, read-out: Cytotoxicity GI50, Colon, HCT-116. As to the method:
as §1

In a further data set the test system is Prostate, DU-145. Description: NCI-60 five-dose cytotoxicity assay, DU-145. To be noted: Homo sapiens, DU-145, read-out: Cytotoxicity GI50, Prostate, DU-145. As to the method: as §1
In a further data set the test system is Ovarian, OVCAR-3. Description: NCI-60 five-dose cytotoxicity assay, OVCAR-3. The conditions noted are these: Homo sapiens, OVCAR-3, read-out: Cytotoxicity GI50, Ovarian, OVCAR-3. As for the experimental part: as §1
In a further data set the test system is Lung, HOP-62. Briefly: NCI-60 five-dose cytotoxicity assay, HOP-62. To be noted: Homo sapiens, HOP-62, read-out: Cytotoxicity GI50, Lung, HOP-62. As to the method:
as §1

The next data set relates to Renal, SN12C. Briefly: NCI-60 five-dose cytotoxicity assay, SN12C. The conditions noted are these: Homo sapiens, read-out: Cytotoxicity GI50, Renal, SN12C. As to the method: as §1
For the next data set, the system named is Melanoma UACC-62. Briefly: NCI-60 five-dose cytotoxicity assay, UACC-62. To be noted: Homo sapiens, UACC-62, read-out: Cytotoxicity GI50, Melanoma UACC-62. As to the method:
as §1

In the next data set the test system is CNS, SF-539. Briefly: NCI-60 five-dose cytotoxicity assay, SF-539. To be noted: Homo sapiens, CNSSF-539, read-out: Cytotoxicity GI50, CNS, SF-539. As to the method:
as §1

Data set [1] concerns approximately 60 different cancer cell lines. Briefly: NCI-60 five-dose cytotoxicity assay, mean graph midpoint. Format: cell-based. To be noted: Homo sapiens, read-out: MGM: mean graph midpoint of growth inhibition (GI50). As to the method: as §1
Data set [2] concerns the target T1, Top1 (Homo sapiens, UniProt P11387).
T1 sequence (P11387 1-765): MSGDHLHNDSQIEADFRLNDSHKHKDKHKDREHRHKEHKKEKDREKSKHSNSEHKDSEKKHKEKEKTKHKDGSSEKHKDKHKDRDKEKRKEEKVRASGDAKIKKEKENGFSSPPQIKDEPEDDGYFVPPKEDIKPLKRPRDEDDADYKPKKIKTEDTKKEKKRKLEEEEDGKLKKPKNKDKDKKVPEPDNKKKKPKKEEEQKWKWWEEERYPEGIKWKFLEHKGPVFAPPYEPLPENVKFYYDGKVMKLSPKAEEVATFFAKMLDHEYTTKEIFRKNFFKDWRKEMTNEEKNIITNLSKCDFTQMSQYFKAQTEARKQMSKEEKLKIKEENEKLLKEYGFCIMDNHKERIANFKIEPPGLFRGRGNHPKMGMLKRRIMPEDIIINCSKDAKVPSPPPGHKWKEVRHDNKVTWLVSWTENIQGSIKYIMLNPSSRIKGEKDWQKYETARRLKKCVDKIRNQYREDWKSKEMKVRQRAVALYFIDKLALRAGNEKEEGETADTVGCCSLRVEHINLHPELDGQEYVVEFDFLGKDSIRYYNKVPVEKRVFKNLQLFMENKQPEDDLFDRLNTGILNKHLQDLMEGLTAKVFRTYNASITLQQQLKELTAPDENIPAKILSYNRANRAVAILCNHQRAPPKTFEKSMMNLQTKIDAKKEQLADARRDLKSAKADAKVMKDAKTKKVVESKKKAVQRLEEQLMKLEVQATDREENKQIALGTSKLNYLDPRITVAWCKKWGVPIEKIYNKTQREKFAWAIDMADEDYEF
To be noted: background statement; cited from earlier work.

Data set [3] has as its target T1, Top1. Description: Top1-mediated DNA cleavage assay. Type of data set: biochemical. The conditions noted are these: score based on the activity of 1 μM 1 (camptothecin); tested at 0.1, 1, 10, 100 μM. As for the experimental part: Approximately 2 nM radiolabeled DNA substrate was incubated with recombinant Top in 20 μL of reaction buffer [10 mM Tris-HCl (pH 7.5), 50 mM KCl, 5 mM MgCl2, 0.1 mM EDTA, and 15 μg/mL BSA] at 25° C. for 20 min in the presence of various concentrations of test compounds. […] Aliquots of each reaction mixture were subjected to 20% denaturing PAGE.
The Top1-mediated DNA cleavage assay was used to measure Top1 inhibitory activity. This assay measures the ability of the compound to stabilize DNA cleavage in a 3′-[^32P]-labeled DNA substrate via Top1 poisoning.

The subject of data set [4] is 60 human cancer cell lines. Description: NCI-60 single-dose cytotoxicity assay. To be noted: mean-graph midpoint of percent growth of 60 human cancer cell lines, 10 μM drug, 48 h, relative to no-drug control and time zero. Format: cell-based. As for the experimental part:
as §1

The next data set has as its target recombinant TDP1 (Homo sapiens, UniProt Q9NUW8). Description: Recombinant TDP1 assay. The conditions noted are these: recombinant TDP1, gel-based; read-out: TDP1: IC50 values for the inhibition of TDP1. Format: biochemical. As for the experimental part:
A 5′-[^32P]-labeled single-stranded DNA oligonucleotide containing a 3′-phosphotyrosine (N14Y) was incubated at 1 nM with 10 pM recombinant TDP1 in the absence or presence of inhibitor for 15 min at room temperature in the LMP1 assay buffer containing 50 mM Tris HCl, pH 7.5, 80 mM KCl, 2 mM EDTA, 1 mM DTT, 40 μg/mL BSA, and 0.01% Tween-20^18. […] Gels were dried and exposed to a PhosphorImager screen (GE Healthcare). Gel images were scanned using a Typhoon 8600 (GE Healthcare), and densitometry analyses were performed using ImageQuant software (GE Healthcare).
TDP1 is involved in the repair of DNA damage that results from the action of Top1 poisons, which induce the formation of DNA-protein adducts that include a 3′-phosphotyrosyl linkage. The TDP1 inhibition assay assesses a test agent's ability to inhibit the enzyme-induced cleavage of a 5′-^32P, 3′-phosphotyrosyl-DNA oligonucleotide, called N14Y. Cleavage of the phosphodiester bond between the 3′-phosphate and tyrosine releases […] from the DNA oligonucleotide. The enzyme-processed DNA oligonucleotide lacking its 3′-phosphotyrosyl moiety is designated N14P. A schematic representation of the assay and a representative gel are shown in FIG. 2, and the TDP1 screening results are listed in Table 1.

Another data set addresses T2, recombinant human TDP2 (Homo sapiens, UniProt O95551).
T2 sequence (O95551 1-362): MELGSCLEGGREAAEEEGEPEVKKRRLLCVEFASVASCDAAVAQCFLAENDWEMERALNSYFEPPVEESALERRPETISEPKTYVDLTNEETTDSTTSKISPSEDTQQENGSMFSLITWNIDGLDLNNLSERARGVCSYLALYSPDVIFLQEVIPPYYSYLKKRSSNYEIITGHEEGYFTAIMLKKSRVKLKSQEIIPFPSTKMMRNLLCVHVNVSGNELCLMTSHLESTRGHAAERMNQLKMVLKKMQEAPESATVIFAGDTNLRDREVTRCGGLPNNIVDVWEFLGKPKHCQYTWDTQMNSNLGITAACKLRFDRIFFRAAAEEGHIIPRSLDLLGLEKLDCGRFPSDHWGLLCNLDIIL
Description: Recombinant TDP2 assay. Format: biochemical. The conditions noted are these: recombinant human TDP2, gel-based; read-out: TDP2: IC50 values for the inhibition of TDP2. The text has this:
Reactions were terminated and treated similarly to recombinant TDP1 reactions.
TDP2, as opposed to TDP1, cleaves the phosphotyrosyl linkage in 5′-phosphotyrosyl-DNA oligonucleotides.

Like-named read-outs stand apart in the source and are kept apart here.

Sequence of recombinant TDP1 (Q9NUW8 whole entry, species assumed): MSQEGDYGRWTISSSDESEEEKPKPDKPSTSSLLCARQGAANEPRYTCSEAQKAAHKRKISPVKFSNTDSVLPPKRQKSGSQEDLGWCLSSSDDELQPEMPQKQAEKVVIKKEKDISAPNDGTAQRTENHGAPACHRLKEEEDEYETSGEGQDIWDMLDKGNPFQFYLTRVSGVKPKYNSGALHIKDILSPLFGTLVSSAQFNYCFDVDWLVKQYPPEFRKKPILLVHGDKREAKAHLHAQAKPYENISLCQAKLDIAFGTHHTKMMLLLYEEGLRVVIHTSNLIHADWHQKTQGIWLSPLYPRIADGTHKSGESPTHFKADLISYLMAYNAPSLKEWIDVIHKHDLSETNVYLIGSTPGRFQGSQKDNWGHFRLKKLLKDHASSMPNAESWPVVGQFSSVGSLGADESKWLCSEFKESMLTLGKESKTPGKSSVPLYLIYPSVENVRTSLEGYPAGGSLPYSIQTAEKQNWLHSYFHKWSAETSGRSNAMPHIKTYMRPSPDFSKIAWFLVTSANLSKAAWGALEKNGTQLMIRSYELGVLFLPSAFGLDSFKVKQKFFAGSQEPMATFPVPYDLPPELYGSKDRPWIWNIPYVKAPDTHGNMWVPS

For `CC[C@@]1(O)C(=O)OCc2c1cc1n(c2=O)Cc2cc3ccccc3nc2-1` [Compound 1, camptothecin, reference compound], the concentration for 50% growth inhibition (GI50) stood at 10 nM in the data set on Breast, MCF7; 30 nM in the data set on Colon, HCT-116; 10 nM in the data set on Prostate, DU-145; 220 nM in the data set on Ovarian, OVCAR-3; 10 nM with Lung, HOP-62; 20 nM with Renal, SN12C. Further, the GI50 with Melanoma UACC-62 came to 10 nM; in the data set with CNS, SF-539 it was 10 nM; in data set [1] it was 40.5 nM.
Consider `O=C1c2ccccc2-c2c1c1ccccc1c(=O)n2CCCNCCCNCCCn1c2c(c3ccccc3c1=O)C(=O)c1ccccc1-2` [Compound 5], for which the Top1 inhibitory activity result at Top1 [2] is reported as “potent”.
As for `CN(C)CCCn1c2c(c3cnccc3c1=O)C(=O)c1ccccc1-2` [Compound 45, 2-Aza-5,6-dihydro-6-(3-(dimethylamino)propyl)-5,11-dioxo-indeno[1,2-c]isoquinoline], the melting point fell in the range of 177 to 178 °C. Further, the GI50 in the data set on Breast, MCF7 came out at 245 nM. The GI50 in the data set with Colon, HCT-116 worked out at 245 nM. The GI50 in the data set with Prostate, DU-145 was found to be 490 nM. Further, in the data set with Ovarian, OVCAR-3, the GI50 stood at 1100 nM. For the same molecule, in the data set with Lung, HOP-62, the GI50 worked out at 398 nM. Moreover, the GI50 with Renal, SN12C came out at 288 nM. The GI50 in the data set on Melanoma UACC-62 amounted to 309 nM. The “Top 1: compound-induced DNA cleavage due to Top1 poisoning” value on Top1 [3] is “++ (++, between 50 and 75% activity)”. For the same molecule, the GI50 in [1] (5 dose assay, 10^−8-10^−4 M, average over tested cell lines) was found to be 437 nM. For the same molecule, in data set [4], the activity at 10 µM is -8.83%. For the same molecule, the IC50 at recombinant TDP1 was 63000 nM. Moreover, on recombinant human TDP2, the IC50 came to 37000 nM.
